In BindingDB's records for doi:10.3109/14756366.2013.777334 (S.G.S.I.T.S., 2014):

How the values were obtained:
Assay in all cases: CA Inhibition Assay
Conditions in all cases: pH 7.5; 4 °C
Carbonic anhydrase 2 = Carbonic anhydrase 2 (Homo sapiens, UniProt P00918)
Procedure: (§1) An applied photophysics stopped-flow instrument has been used for assaying the CA catalyzed CO2 hydration activity. […] The CO2 concentrations ranged from 1.7 to 17mM for the determination of the kinetic parameters and inhibition constants. […] The uncatalyzed rates were determined in the same manner and subtracted from the total observed rates. Stock solutions of inhibitor (0.1mM) were prepared in distilled-deionized water and dilutions up to 0.01nM were done thereafter with distilled deionized water.

Carbonic anhydrase 1 = Carbonic anhydrase 1 (Homo sapiens, UniProt P00915)
Procedure: as §1

Carbonic anhydrase 12 = Carbonic anhydrase 12 (Homo sapiens, UniProt O43570)
Procedure: as §1

Chain of Carbonic anhydrase 1 (P00915 whole entry): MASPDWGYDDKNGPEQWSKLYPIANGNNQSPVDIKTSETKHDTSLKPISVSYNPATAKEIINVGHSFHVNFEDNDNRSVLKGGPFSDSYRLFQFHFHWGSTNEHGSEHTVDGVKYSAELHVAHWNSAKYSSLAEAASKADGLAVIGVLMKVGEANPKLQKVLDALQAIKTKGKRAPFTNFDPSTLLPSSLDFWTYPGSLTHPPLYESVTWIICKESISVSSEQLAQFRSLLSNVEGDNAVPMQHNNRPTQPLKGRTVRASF
Chain of Carbonic anhydrase 12 (O43570 whole entry): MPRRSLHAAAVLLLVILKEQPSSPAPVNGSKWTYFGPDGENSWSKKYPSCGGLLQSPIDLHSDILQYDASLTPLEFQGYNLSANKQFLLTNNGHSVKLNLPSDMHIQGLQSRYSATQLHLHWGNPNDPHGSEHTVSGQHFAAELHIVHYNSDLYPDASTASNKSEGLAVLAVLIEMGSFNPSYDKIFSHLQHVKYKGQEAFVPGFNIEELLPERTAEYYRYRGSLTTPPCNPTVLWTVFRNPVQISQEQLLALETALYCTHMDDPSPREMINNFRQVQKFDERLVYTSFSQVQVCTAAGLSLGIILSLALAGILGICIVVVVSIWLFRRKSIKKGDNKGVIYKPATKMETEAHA

| Compound | Ki (Carbonic anhydrase 2) | Ki (Carbonic anhydrase 1) | Ki (Carbonic anhydrase 12) |
| --- | --- | --- | --- |
| Cc1cc(=O)oc2c1ccc1ccccc12 [4-Methyl-2H-benzo[h]chromen-2-one (4)] | > 200 µM | 9 µM | 5.5 µM |
| Cc1cc(=O)oc2c(O)c(O)ccc12 [7,8-Dihydroxy-4-methyl-2H-chromen-2-one (3)] | > 200 µM | 8.7 µM | 6.6 µM |
| Cc1cc(=O)oc2cc(O)cc(O)c12 [Coumarin derivative, 1b] | – | 8.4 µM | 6.4 µM |

The remaining molecules from weak to strong by Ki (Carbonic anhydrase 1), led by results:

| Ki (Carbonic anhydrase 2) | Ki (Carbonic anhydrase 1) | Ki (Carbonic anhydrase 12) | Compound |
| --- | --- | --- | --- |
| > 200 µM | 8.2 µM | 3.3 µM | Cc1cc(=O)oc2cc3ccccc3cc12 [4-Methyl-2H-benzo[g]chromen-2-one (5)] |
| > 200 µM | 4.8 µM | 4.3 µM | Cc1cc(=O)oc2cc(O)ccc12 [4-Methyl-7-hydroxycoumarin] |
